{"source": "PubChem BioAssay AID328", "about": "(DTP/NCI, 2004)", "test_system": "BDF1 mice, P388 leukemia ip, median survival T/C", "assay": "NCI In Vivo Anticancer Drug Screen. Data for tumor model P388 Leukemia (intraperitoneal) in B6D2F1 (BDF1) mice", "conditions": "endpoint: median survival time, higher = longer survival", "procedure,_shortened": "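Vehicle-dosed animals serve as the reference; survival of compound-dosed, tumour-implanted mice is divided by it.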", "key": {"[1]": {"conditions": "dose: 100.0 mg/kg/injection, schedule: Q04DX003 (ip), vehicle: saline"}, "[2]": {"conditions": "dose: 200.0 mg/kg/injection, schedule: Q04DX003 (ip), vehicle: saline"}}, "note": "Where “and” joins values, the source holds several entries; their conditions need not be identical. Equal entries are not always repeated. Inconclusive results and toxic doses are left out.", "data": [{"smiles": "c1ccc(C(NC2CC3CCC2C3)c2ccccc2)cc1", "note": "(configuration not stated)", "values": [{"measurement": "T/C", "setting": "dose: 50.0 mg/kg/injection, schedule: Q04DX003 (ip), vehicle: saline", "value": "108 % of control"}, {"measurement": "T/C", "setting": "[1]", "value": "108 % of control"}, {"measurement": "T/C", "setting": "[2]", "value": "108 % of control"}]}, {"smiles": "NC(Cc1c[nH]c2cc(N(CCCl)CCCl)ccc12)C(=O)O", "note": "(configuration not stated)", "values": [{"measurement": "T/C", "setting": "dose: 0.75 mg/kg/injection, schedule: Q01DX009 (sc), vehicle: olive oil, sesame oil, peanut oil", "value": "115 % of control"}, {"measurement": "T/C", "setting": "dose: 1.5 mg/kg/injection, schedule: Q01DX009 (sc), vehicle: olive oil, sesame oil, peanut oil", "value": "123 % of control"}, {"measurement": "T/C", "setting": "dose: 1.5 mg/kg/injection, schedule: Q04DX003 (sc), vehicle: olive oil, sesame oil, peanut oil", "value": "113 % of control"}, {"measurement": "T/C", "setting": "dose: 3.0 mg/kg/injection, schedule: Q01DX009 (sc), vehicle: olive oil, sesame oil, peanut oil", "value": "100 % of control"}, {"measurement": "T/C", "setting": "dose: 3.0 mg/kg/injection, schedule: Q04DX003 (sc), vehicle: olive oil, sesame oil, peanut oil", "value": "177 % of control"}, {"measurement": "T/C", "setting": "dose: 4.5 mg/kg/injection, schedule: Q04DX003 (sc), vehicle: olive oil, sesame oil, peanut oil", "value": "162 % of control"}, {"measurement": "T/C", "setting": "dose: 6.0 mg/kg/injection, schedule: Q04DX003 (sc), vehicle: olive oil, sesame oil, peanut oil", "value": "154 % of control"}]}, {"smiles": "Cc1ccc(S(=O)(=O)c2ccc([N+](=O)[O-])c3no[n+]([O-])c23)cc1", "values": [{"measurement": "T/C", "setting": "dose: 25.0 mg/kg/injection, schedule: Q01DX009 (ip), vehicle: saline with Tween-80", "value": "104 % of control"}, {"measurement": "T/C", "setting": "dose: 50.0 mg/kg/injection, schedule: Q01DX009 (ip), vehicle: saline with Tween-80", "value": "108 % of control"}, {"measurement": "T/C", "setting": "dose: 100.0 mg/kg/injection, schedule: Q01DX009 (ip), vehicle: saline with Tween-80", "value": "116 % of control"}]}, {"smiles": "CC(=O)O[C@@]1(C)C(=O)OCC2=CCN3CC[C@@H](OC(=O)[C@H](C)[C@]1(C)OC(C)=O)[C@@H]23", "values": [{"measurement": "T/C", "setting": "dose: 25.0 mg/kg/injection, schedule: Q01DX010 (ip), vehicle: carboxymethylcellulose (CMC)", "value": "105 % of control"}, {"measurement": "T/C", "setting": "dose: 50.0 mg/kg/injection, schedule: Q01DX010 (ip), vehicle: carboxymethylcellulose (CMC)", "value": "90 % of control"}]}, {"smiles": "C(=N\\Nc1nnn(Cc2ccccc2)n1)/c1ccccc1", "values": [{"measurement": "T/C", "setting": "dose: 100.0 mg/kg/injection, schedule: Q04DX003 (ip), vehicle: saline with Tween-80", "value": "90 % of control"}, {"measurement": "T/C", "setting": "dose: 200.0 mg/kg/injection, schedule: Q04DX003 (ip), vehicle: saline with Tween-80", "value": "95 % of control"}, {"measurement": "T/C", "setting": "dose: 400.0 mg/kg/injection, schedule: Q04DX003 (ip), vehicle: saline with Tween-80", "value": "95 % of control"}]}, {"smiles": "O=C(O)C(CS(=O)(=O)O)Nc1ncnc2nc[nH]c12", "note": "(configuration not stated)", "values": [{"measurement": "T/C", "setting": "[1]", "value": "100 % of control"}, {"measurement": "T/C", "setting": "[2]", "value": "100 % of control"}, {"measurement": "T/C", "setting": "dose: 400.0 mg/kg/injection, schedule: Q04DX003 (ip), vehicle: saline", "value": "100 % of control"}]}, {"smiles": "O=C(OC1C2C=CC(C(O)O2)C1c1ccccc1)c1ccc(Cl)cc1", "note": "(configuration not stated)", "values": [{"measurement": "T/C", "setting": "dose: 100.0 mg/kg/injection, schedule: Q01DX001 (ip), vehicle: saline with Tween-80", "value": "94 % of control"}, {"measurement": "T/C", "setting": "dose: 200.0 mg/kg/injection, schedule: Q01DX001 (ip), vehicle: saline with Tween-80", "value": "92 % of control"}]}, {"smiles": "Cc1cc(=O)n(Cc2ccco2)c(=S)[nH]1", "values": [{"measurement": "T/C", "setting": "dose: 50.0 mg/kg/injection, schedule: Q01DX005 (ip), vehicle: saline with Tween-80", "value": "98 % of control"}, {"measurement": "T/C", "setting": "dose: 100.0 mg/kg/injection, schedule: Q01DX005 (ip), vehicle: saline with Tween-80", "value": "93 % of control"}]}, {"smiles": "CC1CCC(C)N1P(=O)(N1CC1)N1CC1", "note": "(configuration not stated)", "values": [{"measurement": "T/C", "setting": "dose: 16.5 mg/kg/injection, schedule: Q04DX003 (ip), vehicle: saline with Tween-80", "value": "168 % of control and 183 % of control"}, {"measurement": "T/C", "setting": "dose: 25.0 mg/kg/injection, schedule: Q04DX003 (ip), vehicle: saline with Tween-80", "value": "120 % of control and 218 % of control"}]}, {"smiles": "C(CC1CO1)C1CO1", "note": "(configuration not stated)", "values": [{"measurement": "T/C", "setting": "dose: 22.0 mg/kg/injection, schedule: Q01DX009 (ip), vehicle: saline", "value": "119 % of control and 120 % of control"}, {"measurement": "T/C", "setting": "dose: 25.0 mg/kg/injection, schedule: Q01DX009 (ip), vehicle: saline", "value": "157 % of control"}, {"measurement": "T/C", "setting": "dose: 30.0 mg/kg/injection, schedule: Q04DX003 (ip), vehicle: saline", "value": "113 % of control"}, {"measurement": "T/C", "setting": "dose: 33.0 mg/kg/injection, schedule: Q01DX009 (ip), vehicle: saline", "value": "150 % of control"}, {"measurement": "T/C", "setting": "dose: 50.0 mg/kg/injection, schedule: Q01DX009 (ip), vehicle: saline", "value": "161 % of control and 166 % of control and 176 % of control"}, {"measurement": "T/C", "setting": "dose: 67.0 mg/kg/injection, schedule: Q04DX003 (ip), vehicle: saline", "value": "172 % of control and 176 % of control"}, {"measurement": "T/C", "setting": "dose: 75.0 mg/kg/injection, schedule: Q01DX009 (ip), vehicle: saline", "value": "175 % of control and 200 % of control"}, {"measurement": "T/C", "setting": "dose: 100.0 mg/kg/injection, schedule: Q01DX009 (ip), vehicle: saline", "value": "215 % of control"}, {"measurement": "T/C", "setting": "[1]", "value": "241 % of control and 200 % of control"}, {"measurement": "T/C", "setting": "dose: 150.0 mg/kg/injection, schedule: Q04DX003 (ip), vehicle: saline", "value": "240 % of control"}]}, {"smiles": "CC1(C)S[C@@H]2[C@H](NC(=O)CCC[C@@H](N)C(=O)O)C(=O)N2[C@H]1C(=O)O", "values": [{"measurement": "T/C", "setting": "dose: 23.0 mg/kg/injection, schedule: Q01DX009 (ip), vehicle: saline", "value": "99 % of control"}, {"measurement": "T/C", "setting": "dose: 47.0 mg/kg/injection, schedule: Q01DX009 (ip), vehicle: saline", "value": "106 % of control"}, {"measurement": "T/C", "setting": "dose: 94.0 mg/kg/injection, schedule: Q01DX009 (ip), vehicle: saline", "value": "107 % of control and 117 % of control and 120 % of control"}, {"measurement": "T/C", "setting": "dose: 188.0 mg/kg/injection, schedule: Q01DX009 (ip), vehicle: saline", "value": "102 % of control and 104 % of control and 106 % of control"}, {"measurement": "T/C", "setting": "dose: 750.0 mg/kg/injection, schedule: Q01DX009 (ip), vehicle: saline", "value": "95 % of control and 102 % of control"}]}]}
